Data published in ChEMBL document CHEMBL3885861, “Open TG-GATES”.

Organism: Rattus norvegicus
Test: Open TG-GATES - Regimen: Daily Repeat
Assay type: toxicity, organism-based, Sprague-Dawley
Design: regimen Daily Repeat, gender Male, age 6 weeks
Details: in vivo, po, 1000 mg/kg, route gavage, dose level High; for APTT / Bas / Eos / Fbg / Hb / Ht / Lym / MCH / MCHC / MCV / Mono / Neu / PT / Plat / RBC / Ret / WBC: tissue Blood; for KIDNEY_L / KIDNEY_R / KIDNEY_TOTAL: tissue Kidney; for LIVER: tissue Liver; for A/G / ALP / ALT / AST / BUN / CRE / Ca / Cl / DBIL / GLC / IP / K / LDH / Na / PL / RALB / TBIL / TC / TG / TP / gamma-GTP: tissue Plasma

CNC(=C[N+](=O)[O-])NCCSCc1ccc(CN(C)C)o1 [RANITIDINE]
TERMINAL_BW (72 h, time 3 day): 237.1 g
APTT (72 h, time 3 day): 20.1 s
Bas (72 h, time 3 day): 0%
Eos (72 h, time 3 day): 1%
Fbg (72 h, time 3 day): 231.6 mg/dL
Hb (72 h, time 3 day): 13.6 g/dL
Ht (72 h, time 3 day): 39.8%
Lym (72 h, time 3 day): 78.4%
MCH (72 h, time 3 day): 21.5 pg
MCHC (72 h, time 3 day): 34.1%
MCV (72 h, time 3 day): 63.1 fL
Mono (72 h, time 3 day): 3%
Neu (72 h, time 3 day): 16%
PT (72 h, time 3 day): 12 s
Plat (72 h, time 3 day): 117.3 x10_4/uL
RBC (72 h, time 3 day): 631.4 x10_4/ul
Ret (72 h, time 3 day): 4.8%
WBC (72 h, time 3 day): 85 x10_2/uL
KIDNEY_L (72 h, time 3 day): 1 g
KIDNEY_R (72 h, time 3 day): 1 g
KIDNEY_TOTAL (72 h, time 3 day): 2 g
LIVER (72 h, time 3 day): 12 g
A/G (72 h, time 3 day): 1.6
ALP (72 h, time 3 day): 907.8 IU/L
ALT (72 h, time 3 day): 41.2 IU/L
AST (72 h, time 3 day): 69.4 IU/L
BUN (72 h, time 3 day): 14.8 mg/dL
CRE (72 h, time 3 day): 0.4 mg/dL
Ca (72 h, time 3 day): 11 mg/dL
Cl (72 h, time 3 day): 103.6 meq/L
DBIL (72 h, time 3 day): 0.098 mg/dL
GLC (72 h, time 3 day): 198.4 mg/dL
IP (72 h, time 3 day): 8 mg/dL
K (72 h, time 3 day): 4 meq/L
LDH (72 h, time 3 day): 216.6 IU/L
Na (72 h, time 3 day): 140.6 meq/L
PL (72 h, time 3 day): 148.4 mg/dL
RALB (72 h, time 3 day): 3.4 g/dL
TBIL (72 h, time 3 day): 0.2 mg/dL
TC (72 h, time 3 day): 80 mg/dL
TG (72 h, time 3 day): 107.4 mg/dL
TP (72 h, time 3 day): 5.6 g/dL
gamma-GTP (72 h, time 3 day): 1.4 IU/L
TERMINAL_BW ([…], time 7 day): 264.9 g
TERMINAL_BW ([…], time 14 day): 314.9 g
TERMINAL_BW ([…], time 28 day): 379.9 g
APTT ([…], time 7 day): 19.6 s
Bas ([…], time 7 day): 0%
Eos ([…], time 7 day): 0.8%
Fbg ([…], time 7 day): 216.8 mg/dL
Hb ([…], time 7 day): 13.9 g/dL
Ht ([…], time 7 day): 39.1%
Lym ([…], time 7 day): 82.2%
MCH ([…], time 7 day): 21.7 pg
MCHC ([…], time 7 day): 35.5%
MCV ([…], time 7 day): 61.2 fL
Mono ([…], time 7 day): 1.6%
Neu ([…], time 7 day): 12.8%
PT ([…], time 7 day): 12.5 s
Plat ([…], time 7 day): 121.8 x10_4/uL
RBC ([…], time 7 day): 639.4 x10_4/ul
Ret ([…], time 7 day): 5%
WBC ([…], time 7 day): 99 x10_2/uL
APTT ([…], time 14 day): 18.9 s
Bas ([…], time 14 day): 0%
Eos ([…], time 14 day): 1%
Fbg ([…], time 14 day): 234.2 mg/dL
Hb ([…], time 14 day): 14.5 g/dL
Ht ([…], time 14 day): 40.3%
Lym ([…], time 14 day): 77.8%
MCH ([…], time 14 day): 21.2 pg
MCHC ([…], time 14 day): 36.1%
MCV ([…], time 14 day): 58.7 fL
Mono ([…], time 14 day): 2.4%
Neu ([…], time 14 day): 18%
PT ([…], time 14 day): 12.1 s
Plat ([…], time 14 day): 118.7 x10_4/uL
RBC ([…], time 14 day): 686 x10_4/ul
Ret ([…], time 14 day): 4.3%
WBC ([…], time 14 day): 87.7 x10_2/uL
APTT ([…], time 28 day): 19.8 s
Bas ([…], time 28 day): 0%
Eos ([…], time 28 day): 1.2%
Fbg ([…], time 28 day): 234.2 mg/dL
Hb ([…], time 28 day): 15.5 g/dL
Ht ([…], time 28 day): 43.3%
Lym ([…], time 28 day): 77.2%
MCH ([…], time 28 day): 20.1 pg
MCHC ([…], time 28 day): 35.9%
MCV ([…], time 28 day): 56.2 fL
Mono ([…], time 28 day): 1.8%
Neu ([…], time 28 day): 18.6%
PT ([…], time 28 day): 12.2 s
Plat ([…], time 28 day): 113 x10_4/uL
RBC ([…], time 28 day): 769.8 x10_4/ul
Ret ([…], time 28 day): 2.2%
WBC ([…], time 28 day): 104.7 x10_2/uL
KIDNEY_L ([…], time 7 day): 1.1 g
KIDNEY_R ([…], time 7 day): 1.2 g
KIDNEY_TOTAL ([…], time 7 day): 2.3 g
KIDNEY_L ([…], time 14 day): 1.2 g
KIDNEY_R ([…], time 14 day): 1.2 g
KIDNEY_TOTAL ([…], time 14 day): 2.4 g
KIDNEY_L ([…], time 28 day): 1.4 g
KIDNEY_R ([…], time 28 day): 1.4 g
KIDNEY_TOTAL ([…], time 28 day): 2.8 g
LIVER ([…], time 7 day): 12.3 g
LIVER ([…], time 14 day): 14.2 g
LIVER ([…], time 28 day): 15.4 g
A/G ([…], time 7 day): 1.5
ALP ([…], time 7 day): 852.4 IU/L
ALT ([…], time 7 day): 37.2 IU/L
AST ([…], time 7 day): 65.4 IU/L
BUN ([…], time 7 day): 16.8 mg/dL
CRE ([…], time 7 day): 0.4 mg/dL
Ca ([…], time 7 day): 10.7 mg/dL
Cl ([…], time 7 day): 103.6 meq/L
DBIL ([…], time 7 day): 0.088 mg/dL
GLC ([…], time 7 day): 224.4 mg/dL
IP ([…], time 7 day): 7.8 mg/dL
K ([…], time 7 day): 3.7 meq/L
LDH ([…], time 7 day): 169.6 IU/L
Na ([…], time 7 day): 140.6 meq/L
PL ([…], time 7 day): 137.2 mg/dL
RALB ([…], time 7 day): 3.3 g/dL
TBIL ([…], time 7 day): 0.1 mg/dL
TC ([…], time 7 day): 76.8 mg/dL
TG ([…], time 7 day): 82.4 mg/dL
TP ([…], time 7 day): 5.5 g/dL
gamma-GTP ([…], time 7 day): 0.8 IU/L
A/G ([…], time 14 day): 1.4
ALP ([…], time 14 day): 785 IU/L
ALT ([…], time 14 day): 37.2 IU/L
AST ([…], time 14 day): 62.8 IU/L
BUN ([…], time 14 day): 17.6 mg/dL
CRE ([…], time 14 day): 0.5 mg/dL
Ca ([…], time 14 day): 10.5 mg/dL
Cl ([…], time 14 day): 103 meq/L
DBIL ([…], time 14 day): 0.08 mg/dL
GLC ([…], time 14 day): 193 mg/dL
IP ([…], time 14 day): 7.4 mg/dL
K ([…], time 14 day): 4.2 meq/L
LDH ([…], time 14 day): 205.8 IU/L
Na ([…], time 14 day): 141.8 meq/L
PL ([…], time 14 day): 137.8 mg/dL
RALB ([…], time 14 day): 3.5 g/dL
TBIL ([…], time 14 day): 0.1 mg/dL
TC ([…], time 14 day): 66.4 mg/dL
TG ([…], time 14 day): 104 mg/dL
TP ([…], time 14 day): 5.8 g/dL
gamma-GTP ([…], time 14 day): 1.2 IU/L
A/G ([…], time 28 day): 1.3
ALP ([…], time 28 day): 562.8 IU/L
ALT ([…], time 28 day): 38.8 IU/L
AST ([…], time 28 day): 61 IU/L
BUN ([…], time 28 day): 17.2 mg/dL
CRE ([…], time 28 day): 0.5 mg/dL
Ca ([…], time 28 day): 10.5 mg/dL
Cl ([…], time 28 day): 102.2 meq/L
DBIL ([…], time 28 day): 0.094 mg/dL
GLC ([…], time 28 day): 198.6 mg/dL
IP ([…], time 28 day): 7.2 mg/dL
K ([…], time 28 day): 3.8 meq/L
LDH ([…], time 28 day): 114.2 IU/L
Na ([…], time 28 day): 141.6 meq/L
PL ([…], time 28 day): 142.6 mg/dL
RALB ([…], time 28 day): 3.5 g/dL
TBIL ([…], time 28 day): 0.2 mg/dL
TC ([…], time 28 day): 70.4 mg/dL
TG ([…], time 28 day): 96 mg/dL
TP ([…], time 28 day): 6.1 g/dL
gamma-GTP ([…], time 28 day): 0.8 IU/L
